# Laboratory results published in patent US9199028B2, “Use of entrained neutrophils to treat metastatic and micrometastatic disease in at risk patients” (MEMORIAL SLOAN-KETTERING CANCER CENTER, priority 2010, dated 2015).
# “Also recorded” adds a separate entry of the source.
# B1: CCL4: CC chemokine (protein, UniProt P13236 24-92, looked up)
# C-C motif chemokine 4: APMGSDPPTACCFSYTARKLPRNFVVDYYETSSLCSQPAVVFQTKRSKQVCADPSESWVQEYVYDLELN
# B2: CXCL16: CXC chemokine (protein, UniProt Q9H2A7 30-254, looked up)
# C-X-C motif chemokine 16: NEGSVTGSCYCGKRISSDSPPSVQFMNRLRKHLRAYHRCLYYTRFQLLSWSVCGGNKDPWVQELMSCLDLKECGHAYSGIVAHQKHLLPTSPPISQASEGASSDIHTPAQMLLSTLQSTQRPTLPVGSLSSDKELTRPNETTIHTAGHSLAAGPEAGENQKQPEKNAGPTARTSATVPVLCLLAIIFILTAALSYVLCKRRRGQSPQSSPDLPVHYIPVAPDSNT
# Assays:
# MDA-MB-231 cells = experiment: In vitro killing assay: human neutrophils co-cultured with luciferase labelled MDA-MB-231 cells; assay type: cell-based; conditions: naïve human neutrophils:tumor cells 1:1, chemokine 100 ng/ml (rhG-CSF 20 ng/ml), overnight
# Excerpt: Luciferase is under a constitutive promoter so cell death results in a decrease in luciferase activity because there is no transcription/translation of the lucierferase gene. The assay itself requires lysing of the cell to release the luciferase to mix with the luciferin and measure the luminescence. But it isn't that they dying cell releases luciferase. More signal means more luciferase which means more live cells. […]. […] Nave human neutrophils were co-cultured with MDA-MB-231 cells. […] Cells were seeded at a ratio of human neutrophils:human tumor cells=1:1.
# (§1) Antibodies used for immunohistochemistry—MMP9, F4/80 and CCR2 (all from AbCam), Myeloperoxidase (Dako), Ly-6G and Cd11b (both from BD), and Cleaved Caspase 3 (Cell signalling). Antibodies used for western blotting—Actin (Sigma), CCL2 (AbCam) and CCL5 (R&D) p-SMAD2 (cell signalling). Antibodies used for FACS analysis FITC-Ly-6G, FITC-Cd11b, FITC-F4/80, FITC-Cd34 and FITC-c-Kit (all from BD) and VEGFR1-AP (R&D). Neutrophil Depletion Neutrophil depletion was achieved using daily IP injections of 12.5 μg Rat anti-Gr-1 antibody (BD) or Rat anti-Ly-6G antibody (BD) starting on day 3 post tumour engraftment. Starting on day 14, neutrophil depleting antibodies were administered twice daily. Control mice were injected with […] Rat isotype control (BD). Neutrophil depletion was monitored by manual blood differentials and FACS analysis. Flow Cytometry Peripheral blood was collected into EDTA-coated tubes, washed and resuspended in FACS buffer solution (PBS, 2% heat-inactivated FCS, 5 mM EDTA, and 0.02% sodium azide). The samples were blocked with […] and then incubated with fluorophore-conjugated antibodies. Erythrocytes were then lysed with FACS lysing solution (BD Biosciences) and the cell suspensions were analyzed on a FACSCalibur (BD Biosciences). Colony Formation Assay Female nude mice were orthotopically injected with 5×10^6 puromicin resistant 4T1 cells. On days 7 and 14 post tumour engraftment the mice were sacrificed and perfused with PBS. The lungs and livers were removed, washed with PBS and dissociated with Collagenase A (Roche). The single cell suspension was then plated onto puromicin containing media and selected for 14 day. Colonies were stained with Methylene-Blue and counted manually. Mouse Neutrophil Purification Whole blood was collected by cardiac puncture using heparinized (Sigma) syringe. The blood was diluted with 5 volumes of PBS containing 0.5% BSA and subjected to a discontinuous Histopaque (Sigma) gradient (1.077 and 1.119). Neutrophils were collected from the 1.077-1.119 interface, lymphocytes and monocytes collected from the plasma-1.077 interface. RBCs were eliminated by hypotonic lysis. The cells were washed twice with PBS-BSA and re-suspended in OptiMEM (Invitrogen) 0.5% FBS in a final concentration of 2×10^6 cells/ml. Neutrophil purity and viability were determined visually and were consistently >98%. Human Neutrophil Purification As part of a Memorial Sloan-Kettering Cancer Center institutionally approved protocol, blood samples (˜10 cc) were collected from healthy volunteers or from patients who were already having blood drawn for pre-surgical testing. Patients were consented accordingly as part of the approved protocol. […] Patients had either mastectomies or lumpectomies planned and had blood drawn prior to definitive surgical removal of their primary tumor or chemotherapy. Blood samples were transferred to the lab for analysis no more than 1 hour post-blood draw. Heparinzed blood (20 U/ml final) was mixed with an equal volume of Dextran 500 (3% in saline) and incubated 30 minutes at room temperature. The leukocyte-rich supernatant was layered on top of histopaque 1077 (Sigma) and centrifuged. Neutrophils, collected in the pellet fraction, were resuspended in 10 ml 0.2% NaCl for 30 seconds to remove contaminating erythrocytes. Isotonicity was restored by the addition of 10 ml 1.6% NaCl. […]
# 4T1 cells [1] = experiment: In vitro killing assay: TENs co-cultured with 4T1 cells in the presence of inhibitors or TGF-β; assay type: cell-based, mouse; conditions: for neutrophil (TEN) mediated tumour-cell killing in the presence of inhibitor: TENs + 4T1 cells overnight, Apocynin 100 μM, Catalase 1,000 u/ml, Superoxide Dismutase 1,000 u/ml, Taurine 50 mM; for TEN mediated in vitro killing of 4T1 cells in the presence of TGF-β: picomolar concentrations (up to 200 pMolar)
# Excerpt: as §1, with “NaCl. Neutrophils were than washed three times in Hanks's balanced salt solution and resuspended in RPMI+FCS2%. In vitro Killing Assay Luciferase labelled cells (5,000/well) were plated on a 96-well, flat bottom white polystyrene tissue culture plate in OptiMEM 0.5% FBS (mouse neutrophils) or RPMI 2% FBS (human neutrophils). 4 hours later, purified neutrophils (100,000/well for mouse neutrophils and 5000 for human neutrophils) were added to the plated tumour cells and co-cultured overnight.” for “NaCl.”
# 4T1 cells [2] = experiment: In vitro killing assay: naïve mouse neutrophils co-cultured with luciferase labelled 4T1 cells in the presence of chemokines; assay type: cell-based; conditions: naïve mouse neutrophils co-cultured with 4T1 cells, chemokine 20 ng/ml, overnight
# Excerpt: as §1, with “NaCl. Neutrophils were than washed three times in Hanks's balanced salt solution and resuspended in RPMI+FCS2%. In vitro Killing Assay Luciferase labelled cells (5,000/well) were plated on a 96-well, flat bottom white polystyrene tissue culture plate in OptiMEM 0.5% FBS (mouse neutrophils) or RPMI 2% FBS (human neutrophils). 4 hours later, purified neutrophils (100,000/well for mouse neutrophils and 5000 for human neutrophils) were added to the plated tumour cells and co-cultured overnight.” for “NaCl.”
# 4T1 cells [3] = experiment: In vivo stimulation of neutrophils with chemokines, purified neutrophils co-cultured with 4T1 cells; assay type: cell-based, mouse; conditions: healthy mice treated in vivo with G-CSF alone or G-CSF plus chemokine
# Method: A. To test which chemokines may participate in the stimulation of neutrophils, neutrophils purified from healthy mice were co-culture with luciferase labeled 4T1 cells in the presence (20 ng/ml of chemokine) or absence of certain chemokines for an overnight incubation. […] B. To test which chemokines are sufficient for in vivo stimulation of neutrophils healthy mice were treated with G-CSF (to boost neutrophil numbers) and either CCL2, CCL5 or CXCL1. Control mice were treated with G-CSF alone. Neutrophils were purified from these mice and co-cultured with Luciferase-labeled 4T1 cells. […] Conclusion—CCL2 and to a lesser degree CCL5 can stimulate tumor cell killing both in vitro and in vivo.
Molecule,neutrophil cytotoxicity / neutrophil mediated killing of MDA-MB-231 cells (MDA-MB-231 cells),neutrophil mediated killing of 4T1 cells (tumor cell viability by luciferase activity) (4T1 cells [2]),further results
"hCCL2: human CCL2 from R&D, used at 100 ng/ml",induces neutrophil mediated cell killing; also recorded: induce the killing of human MDA-MB-231 in vitro,–,–
Superoxide Dismutase,–,–,neutrophil (TEN) mediated tumour-cell killing in the presence of inhibitor (4T1 cells [1]): does not; neutrophil (TEN) mediated tumour-cell killing in the presence of inhibitor (4T1 cells [1]; listed as superoxide dismutase): did not inhibit cell death
TGF-β,–,–,TEN mediated in vitro killing of 4T1 cells in the presence of TGF-β (4T1 cells [1]): dramatic inhibitory effect; TEN mediated in vitro killing of 4T1 cells in the presence of TGF-β (4T1 cells [1]; listed as TGF-Beta): dramatically inhibited TENs cytotoxicity towards tumour cells
Catalase,–,–,neutrophil (TEN) mediated tumour-cell killing in the presence of inhibitor (4T1 cells [1]): completely inhibits tumour-cell killing; neutrophil (TEN) mediated tumour-cell killing in the presence of inhibitor (4T1 cells [1]; listed as catalase): completely inhibits cell killing
"mCCL2: mouse CCL2 from R&D, used at 20 ng/ml",–,induces neutrophil mediated cell killing; also recorded: induced tumour cell killing in vitro,–
CXCL12: CXC chemokine,significantly increase neutrophil cytotoxicity,no significant effect on tumor-cell viability,–
CXCL1: CXC chemokine,to a lesser extent CXCL1 significantly increase neutrophil cytotoxicity,no significant effect on tumor-cell viability,viability of 4T1 cells co-cultured with neutrophils purified from chemokine treated mice (4T1 cells [3]): did not induce a reduction in cell viability
CCL3: CC chemokine,significantly increase neutrophil cytotoxicity,no significant effect on tumor-cell viability,–
NCCS(=O)(=O)O [Taurine],–,–,neutrophil (TEN) mediated tumour-cell killing in the presence of inhibitor (4T1 cells [1]): does not inhibit tumour-cell killing; neutrophil (TEN) mediated tumour-cell killing in the presence of inhibitor (4T1 cells [1]; listed as taurine): did not reduce tumour-cell killing
"hCCL5: human CCL5 from R&D, used at 100 ng/ml",induces neutrophil mediated cell killing; also recorded: induce the killing of human MDA-MB-231 in vitro,–,–
B1,but not CCL4 significantly increase neutrophil cytotoxicity,significant reduction in tumor cell viability,–
B2,significantly increase neutrophil cytotoxicity,significant reduction in tumor cell viability,–
